Reference: patent US20260231948A1, “AN HERBICIDAL COMBINATION, COMPOSITION AND METHOD OF CONTROLLING WEEDS USING THE SAME” (priority 2023, published 2026)

What was measured:
[1] = system: Viola arvensis, Bromus spp., Lolium spp., Agropyron repens and Urtica urens; conditions: Hoechst et al., 1991; cited from earlier work
Brachiaria decumbens = assay: Greenhouse post-emergence herbicidal activity on Brachiaria decumbens; type: in vivo
Description: The expected efficacy of a combination of L-glufosinate ammonium and the other herbicides was calculated using the well-established Colby method. Any difference between the observed and “expected” efficacy could be attributed to synergy between the two compounds.
In the Colby method, the expected (or predicted) response of a combination of herbicides is calculated by taking the product of the observed response for each individual component of the combination when applied alone, divided by 100, and subtracting this value from the sum of the observed response for each component when applied alone. An unexpected enhancement in efficacy of the combination is then determined by comparing the observed response of the combination to the expected (or predicted) response as calculated from the observed response of each individual component alone. If the observed response of the combination is greater than the expected (or predicted) response, or stated conversely, if the difference between the observed and expected response is greater than zero, then the combination is said to be synergistic or unexpectedly effective (Colby, S. R., Weeds, 1967(15), p. 20-22). […]
The percentage efficacy was calculated at 7, 14, 21 and 28 days after application (DAA). The target weed was Brachiaria decumbens, and the concentration of the herbicide and the results are recorded Table 1.

| Compound | Control of weed species by glufosinate [1] | Observed efficacy (%) of isoxaflutole (60 g a.i./ha) (Brachiaria decumbens; 7 DAA) | Observed efficacy (%) of isoxaflutole (60 g a.i./ha) (Brachiaria decumbens; 14 DAA) |
| --- | --- | --- | --- |
| CP(=O)(O)CCC(N)C(=O)O (racemic) [glufosinate, DL-homoalanin-4-yl(methyl)phosphinic acid] | either not combated, or only weakly combated | – | – |
| CS(=O)(=O)c1cc(C(F)(F)F)ccc1C(=O)c1cnoc1C1CC1 [isoxaflutole] | – | 45% | 70% |
